Measured values reported in US20070128217A1 (priority 2003, published 2007).

What was measured:
[1] = tested on: rabbit serum obtained by immunizing a rabbit with the SARS-CoV strain Frankfurt 1; type: binding; set-up: Binding of a rabbit serum to linear peptides / Binding of a rabbit serum to looped peptides / Rabbit serum linear peptides / Rabbit serum looped peptides / Binding of a rabbit serum to linear peptides of protein N of SARS-CoV Urbani (Rabbit serum linear peptides) / Binding of a rabbit serum to looped/cyclic peptides of protein N of SARS-CoV Urbani (Rabbit serum looped peptides): unit not given here
[2] = tested on: control sera (pooled serum of ten healthy LUMC hospital workers; commercial negative donor pooled serum from the Dutch bloodbank); type: binding, human
[3] = tested on: antibodies in sera from SARS patients (sera 1a, 1b, 2, 6, 37, 62, London, SARS-yellow, SARS-green); type: binding, human; set-up: Binding of serum 6 to linear peptides of protein X1 of SARS-CoV Urbani / Binding of serum 37 to linear peptides of protein X1 of SARS-CoV Urbani / Binding of serum 6 to looped/cyclic peptide (PEPSCAN-ELISA) / Binding of serum 37 to looped/cyclic peptide (PEPSCAN-ELISA) / Binding of serum 37 to looped/cyclic peptides of protein X1 of SARS-CoV Urbani / Binding of serum 6 to linear peptides of protein X2 / Binding of serum 37 to linear peptides of protein X2 / Binding of serum 37 to looped/cyclic peptides of protein X2 of SARS-CoV Urbani / Binding of serum 6 to linear peptides of protein M of SARS-CoV Urbani / Binding of serum 37 to linear peptides of protein M of SARS-CoV Urbani / Binding of serum 6 to looped/cyclic peptides of protein M of SARS-CoV Urbani / Binding of serum 37 to looped/cyclic peptides of protein M of SARS-CoV Urbani / Binding of serum 6 to linear peptides of protein X3 of SARS-CoV Urbani / Binding of serum 37 to linear peptides of protein X3 of SARS-CoV Urbani / Binding of serum 37 to looped/cyclic peptides of protein X3 of SARS-CoV Urbani / Binding of serum 6 to linear peptides of protein X4 of SARS-CoV Urbani / Binding of serum 37 to linear peptides of protein X4 of SARS-CoV Urbani / Binding of serum 37 to looped/cyclic peptides of protein X4 of SARS-CoV Urbani / Binding of serum 6 to linear peptides of protein X5 of SARS-CoV Urbani / Binding of serum 37 to linear peptides of protein X5 of SARS-CoV Urbani / Binding of serum 37 to looped/cyclic peptides of protein X5 of SARS-CoV Urbani / Binding of serum 6 to linear peptides of protein N of SARS-CoV Urbani / Binding of serum 37 to linear peptides of protein N of SARS-CoV Urbani / Binding of serum 6 to linear peptide (PEPSCAN-ELISA) / Binding of serum 1a to looped/cyclic peptides of protein N of SARS-CoV Urbani / Binding of serum 1b to looped/cyclic peptides of protein N of SARS-CoV Urbani / Binding of serum 2 to looped/cyclic peptides of protein N of SARS-CoV Urbani / Binding of serum 6 to looped/cyclic peptides of protein N of SARS-CoV Urbani / Binding of serum 37 to looped/cyclic peptides of protein N of SARS-CoV Urbani / Binding of serum 62 to looped/cyclic peptides of protein N of SARS-CoV Urbani / Binding of serum London to looped/cyclic peptides of protein N of SARS-CoV Urbani / Binding of serum SARS-green to looped/cyclic peptides of protein N of SARS-CoV Urbani: unit not given here

AFVVFLLVTLAILTA
0.7: Binding of a rabbit serum to linear peptides [1] | Binding of serum 37 to linear peptides of protein E of SARS-CoV Urbani [3] | Binding of serum 62 to linear peptides of protein E of SARS-CoV Urbani [3]
0.4: Binding of Control serum LUMC to linear peptides [2] | Binding of serum 1b to looped/cyclic peptides of protein E of SARS-CoV Urbani [3] | Binding of serum 2 to linear peptides of protein E of SARS-CoV Urbani [3] | Binding of serum 2 to looped/cyclic peptides of protein E of SARS-CoV Urbani [3] | Binding of serum London to looped/cyclic peptides of protein E of SARS-CoV Urbani [3] | Binding of serum SARS-green to linear peptides of protein E of SARS-CoV Urbani [3]
0.6: Binding of serum 1b to linear peptides of protein E of SARS-CoV Urbani [3] | Binding of serum 6 to linear peptides of protein E of SARS-CoV Urbani [3] | Binding of serum 62 to looped/cyclic peptides of protein E of SARS-CoV Urbani [3] | Binding of serum London to linear peptides of protein E of SARS-CoV Urbani [3]
0.2: Binding of serum SARS-yellow to linear peptides of protein E of SARS-CoV Urbani [3]
0.5: Binding of Control serum Blood-bank to linear peptides [2] | Binding of Control serum LUMC to looped peptides [2] | Binding of serum 1a to looped/cyclic peptides of protein E of SARS-CoV Urbani [3] | Binding of serum 6 to looped/cyclic peptides of protein E of SARS-CoV Urbani [3] | Binding of serum 37 to looped/cyclic peptides of protein E of SARS-CoV Urbani [3] | Binding of serum SARS-green to looped/cyclic peptides of protein E of SARS-CoV Urbani [3] | Binding of serum SARS-yellow to looped/cyclic peptides of protein E of SARS-CoV Urbani [3]
0.8: Binding of Control Serum Blood-Bank to Looped peptides [2] | Binding of serum 1a to linear peptides of protein E of SARS-CoV Urbani [3]
0.1: Binding of a rabbit serum to looped peptides [1]

AIWNLDVIISSIVRQ
0.4: Rabbit serum looped peptides [1] | Binding of serum 1b to linear peptides of protein X3 of SARS-CoV Urbani [3] | Binding of serum 2 to looped/cyclic peptides of protein X3 of SARS-CoV Urbani [3] | Binding of serum 6 to looped/cyclic peptides of protein X3 of SARS-CoV Urbani [3] | Binding of serum SARS-green to looped/cyclic peptides of protein X3 of SARS-CoV Urbani [3]
0.3: Rabbit serum linear peptides [1] | Binding of serum SARS-green to linear peptides of protein X3 of SARS-CoV Urbani [3] | Binding of serum SARS-yellow to linear peptides of protein X3 of SARS-CoV Urbani [3]
0.7: Binding of Control serum Blood-bank to linear peptides of the protein X3 of SARS-CoV Urbani [2] | Binding of Control serum LUMC to linear peptides of the protein X3 of SARS-CoV Urbani [2] | Binding of Control serum LUMC to looped peptides of the protein X3 of SARS-CoV Urbani [2]
0.8: Binding of Control Serum Blood-Bank to Looped peptides of the protein X3 of SARS-CoV Urbani [2] | Binding of serum 1a to linear peptides of protein X3 of SARS-CoV Urbani [3]
0.5: Binding of serum 1a to looped/cyclic peptides of protein X3 of SARS-CoV Urbani [3] | Binding of serum 1b to looped/cyclic peptides of protein X3 of SARS-CoV Urbani [3] | Binding of serum 6 to linear peptides of protein X3 of SARS-CoV Urbani [3] | Binding of serum 62 to looped/cyclic peptides of protein X3 of SARS-CoV Urbani [3]
0.2: Binding of serum London to looped/cyclic peptides of protein X3 of SARS-CoV Urbani [3]
0.6: Binding of serum 2 to linear peptides of protein X3 of SARS-CoV Urbani [3] | Binding of serum 37 to linear peptides of protein X3 of SARS-CoV Urbani [3] | Binding of serum 37 to looped/cyclic peptides of protein X3 of SARS-CoV Urbani [3] | Binding of serum 62 to linear peptides of protein X3 of SARS-CoV Urbani [3] | Binding of serum London to linear peptides of protein X3 of SARS-CoV Urbani [3] | Binding of serum SARS-yellow to looped/cyclic peptides of protein X3 of SARS-CoV Urbani [3]

ALRLCAYCCNIVNVS
0.7: Binding of a rabbit serum to linear peptides [1] | Binding of serum 2 to looped/cyclic peptides of protein E of SARS-CoV Urbani [3] | Binding of serum 6 to linear peptides of protein E of SARS-CoV Urbani [3] | Binding of serum 6 to looped/cyclic peptides of protein E of SARS-CoV Urbani [3] | Binding of serum 37 to looped/cyclic peptides of protein E of SARS-CoV Urbani [3] | Binding of serum 62 to linear peptides of protein E of SARS-CoV Urbani [3] | Binding of serum SARS-yellow to looped/cyclic peptides of protein E of SARS-CoV Urbani [3]
0.6: Binding of serum London to looped/cyclic peptides of protein E of SARS-CoV Urbani [3] | Binding of serum SARS-green to looped/cyclic peptides of protein E of SARS-CoV Urbani [3]
1.1: Binding of Control Serum Blood-Bank to Looped peptides [2]
0.5: Binding of Control serum LUMC to linear peptides [2] | Binding of serum 2 to linear peptides of protein E of SARS-CoV Urbani [3] | Binding of serum London to linear peptides of protein E of SARS-CoV Urbani [3] | Binding of serum SARS-green to linear peptides of protein E of SARS-CoV Urbani [3]
0.4: Binding of a rabbit serum to looped peptides [1]
0.8: Binding of Control serum Blood-bank to linear peptides [2] | Binding of Control serum LUMC to looped peptides [2] | Binding of serum 1a to looped/cyclic peptides of protein E of SARS-CoV Urbani [3] | Binding of serum 1b to linear peptides of protein E of SARS-CoV Urbani [3] | Binding of serum 1b to looped/cyclic peptides of protein E of SARS-CoV Urbani [3] | Binding of serum 37 to linear peptides of protein E of SARS-CoV Urbani [3] | Binding of serum 62 to looped/cyclic peptides of protein E of SARS-CoV Urbani [3]
0.2: Binding of serum SARS-yellow to linear peptides of protein E of SARS-CoV Urbani [3]
0.9: Binding of serum 1a to linear peptides of protein E of SARS-CoV Urbani [3]

EETGTLIVNSVLLFL
0.5: Binding of a rabbit serum to linear peptides [1] | Binding of serum London to linear peptides of protein E of SARS-CoV Urbani [3] | Binding of serum SARS-green to linear peptides of protein E of SARS-CoV Urbani [3] | Binding of serum SARS-yellow to looped/cyclic peptides of protein E of SARS-CoV Urbani [3]
0.3: Binding of serum 1b to looped/cyclic peptides of protein E of SARS-CoV Urbani [3] | Binding of serum 2 to looped/cyclic peptides of protein E of SARS-CoV Urbani [3] | Binding of serum SARS-green to looped/cyclic peptides of protein E of SARS-CoV Urbani [3]
0.6: Binding of Control Serum Blood-Bank to Looped peptides [2] | Binding of Control serum LUMC to linear peptides [2] | Binding of serum 6 to linear peptides of protein E of SARS-CoV Urbani [3]
0.0: Binding of a rabbit serum to looped peptides [1]
0.4: Binding of Control serum LUMC to looped peptides [2] | Binding of serum 1a to looped/cyclic peptides of protein E of SARS-CoV Urbani [3] | Binding of serum 2 to linear peptides of protein E of SARS-CoV Urbani [3] | Binding of serum 6 to looped/cyclic peptides of protein E of SARS-CoV Urbani [3] | Binding of serum 37 to looped/cyclic peptides of protein E of SARS-CoV Urbani [3] | Binding of serum London to looped/cyclic peptides of protein E of SARS-CoV Urbani [3]
0.2: Binding of serum SARS-yellow to linear peptides of protein E of SARS-CoV Urbani [3]
0.7: Binding of Control serum Blood-bank to linear peptides [2] | Binding of serum 1b to linear peptides of protein E of SARS-CoV Urbani [3] | Binding of serum 62 to linear peptides of protein E of SARS-CoV Urbani [3] | Binding of serum 62 to looped/cyclic peptides of protein E of SARS-CoV Urbani [3]
0.8: Binding of serum 1a to linear peptides of protein E of SARS-CoV Urbani [3] | Binding of serum 37 to linear peptides of protein E of SARS-CoV Urbani [3]
